Consider 2 compounds from ChEMBL document CHEMBL5653615 (J Biol Chem, 2013).

For experiment [1], the target named is Tyrosine-protein kinase ABL1 (Homo sapiens) (UniProt P00519). As to the kind of experiment: Inhibition of human ABL1 at 500 nM by HotSpot assay relative to control.
In experiment [2] the target is RAC-alpha serine/threonine-protein kinase (Homo sapiens) (UniProt P31749). As to the kind of experiment: Inhibition of human AKT1 at 500 nM by HotSpot assay relative to control.
Experiment [3] addresses T1, Aurora kinase A (Homo sapiens) (UniProt O14965).
T1 sequence (whole entry): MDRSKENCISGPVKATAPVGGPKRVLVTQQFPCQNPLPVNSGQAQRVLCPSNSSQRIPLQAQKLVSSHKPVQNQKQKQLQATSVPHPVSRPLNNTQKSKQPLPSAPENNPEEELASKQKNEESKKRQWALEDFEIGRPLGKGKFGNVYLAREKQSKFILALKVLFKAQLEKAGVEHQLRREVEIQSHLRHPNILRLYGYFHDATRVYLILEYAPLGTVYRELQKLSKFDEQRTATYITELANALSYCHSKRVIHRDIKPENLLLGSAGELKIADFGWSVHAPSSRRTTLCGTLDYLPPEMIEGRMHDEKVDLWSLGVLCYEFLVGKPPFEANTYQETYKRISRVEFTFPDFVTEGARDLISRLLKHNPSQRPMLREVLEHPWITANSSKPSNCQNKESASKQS
As to the kind of experiment: Inhibition of human Aurora A at 500 nM by HotSpot assay relative to control.

Experiment [4] concerns the target Tyrosine-protein kinase BTK (Homo sapiens) (UniProt Q06187). As to the kind of experiment: Inhibition of human BTK at 500 nM by HotSpot assay relative to control.
In experiment [5] the target is Calcium/calmodulin-dependent protein kinase type II subunit delta (Homo sapiens) (UniProt Q13557). Description: Inhibition of human CAMK2d at 500 nM by HotSpot assay relative to control.
Experiment [6] addresses T2, Interleukin-1 receptor-associated kinase 4 (Homo sapiens) (UniProt Q9NWZ3).
T2 sequence (whole entry): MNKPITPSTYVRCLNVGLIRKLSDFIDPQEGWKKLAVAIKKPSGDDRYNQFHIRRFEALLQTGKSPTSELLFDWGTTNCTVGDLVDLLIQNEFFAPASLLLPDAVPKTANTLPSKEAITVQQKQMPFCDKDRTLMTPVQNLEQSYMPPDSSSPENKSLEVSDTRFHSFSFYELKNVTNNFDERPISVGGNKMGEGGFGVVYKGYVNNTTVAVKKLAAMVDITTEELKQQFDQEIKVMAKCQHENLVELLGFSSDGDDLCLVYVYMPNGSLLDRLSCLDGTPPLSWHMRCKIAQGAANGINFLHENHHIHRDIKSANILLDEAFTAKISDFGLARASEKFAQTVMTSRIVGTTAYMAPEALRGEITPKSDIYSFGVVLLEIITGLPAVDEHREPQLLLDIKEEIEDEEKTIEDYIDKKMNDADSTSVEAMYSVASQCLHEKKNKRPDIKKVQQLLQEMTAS
Description: Inhibition of human IRAK4 at 500 nM by HotSpot assay relative to control.

Experiment [7] addresses Mitogen-activated protein kinase 8 (Homo sapiens) (UniProt P45983). Description: Inhibition of human JNK1 at 500 nM by HotSpot assay relative to control.
Experiment [8] addresses Mitogen-activated protein kinase 9 (Homo sapiens) (UniProt P45984). As to the kind of experiment: Inhibition of human JNK2 at 500 nM by HotSpot assay relative to control.
In experiment [9] the target is Mitogen-activated protein kinase 10 (Homo sapiens) (UniProt P53779). As to the kind of experiment: Inhibition of human JNK3 at 500 nM by HotSpot assay relative to control.
Experiment [10] concerns the target T3, Dual specificity mitogen-activated protein kinase kinase 6 (Homo sapiens) (UniProt P52564).
T3 sequence (whole entry): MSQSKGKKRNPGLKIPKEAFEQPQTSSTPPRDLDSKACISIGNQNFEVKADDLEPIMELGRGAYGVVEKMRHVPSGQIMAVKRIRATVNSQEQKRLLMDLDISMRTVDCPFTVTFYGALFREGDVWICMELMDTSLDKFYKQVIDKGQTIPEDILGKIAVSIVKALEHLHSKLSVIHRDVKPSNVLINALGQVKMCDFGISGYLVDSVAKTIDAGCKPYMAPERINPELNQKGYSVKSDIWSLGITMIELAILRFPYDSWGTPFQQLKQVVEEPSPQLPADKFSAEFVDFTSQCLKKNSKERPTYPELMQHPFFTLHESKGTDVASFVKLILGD
As to the kind of experiment: Inhibition of human MKK6 at 500 nM by HotSpot assay relative to control.

The target in experiment [11] is Protein kinase C alpha type (Homo sapiens) (UniProt P17252). Description: Inhibition of human PKCa at 500 nM by HotSpot assay relative to control.
Experiment [12] has as its target Protein-tyrosine kinase 2-beta (Homo sapiens) (UniProt Q14289). As to the kind of experiment: Inhibition of human PYK2 at 500 nM by HotSpot assay relative to control.
For experiment [13], the target named is Proto-oncogene tyrosine-protein kinase ROS (Homo sapiens) (UniProt P08922). Description: Inhibition of human ROS1 at 500 nM by HotSpot assay relative to control.
Chain of Proto-oncogene tyrosine-protein kinase ROS (Homo sapiens) (P08922 whole entry): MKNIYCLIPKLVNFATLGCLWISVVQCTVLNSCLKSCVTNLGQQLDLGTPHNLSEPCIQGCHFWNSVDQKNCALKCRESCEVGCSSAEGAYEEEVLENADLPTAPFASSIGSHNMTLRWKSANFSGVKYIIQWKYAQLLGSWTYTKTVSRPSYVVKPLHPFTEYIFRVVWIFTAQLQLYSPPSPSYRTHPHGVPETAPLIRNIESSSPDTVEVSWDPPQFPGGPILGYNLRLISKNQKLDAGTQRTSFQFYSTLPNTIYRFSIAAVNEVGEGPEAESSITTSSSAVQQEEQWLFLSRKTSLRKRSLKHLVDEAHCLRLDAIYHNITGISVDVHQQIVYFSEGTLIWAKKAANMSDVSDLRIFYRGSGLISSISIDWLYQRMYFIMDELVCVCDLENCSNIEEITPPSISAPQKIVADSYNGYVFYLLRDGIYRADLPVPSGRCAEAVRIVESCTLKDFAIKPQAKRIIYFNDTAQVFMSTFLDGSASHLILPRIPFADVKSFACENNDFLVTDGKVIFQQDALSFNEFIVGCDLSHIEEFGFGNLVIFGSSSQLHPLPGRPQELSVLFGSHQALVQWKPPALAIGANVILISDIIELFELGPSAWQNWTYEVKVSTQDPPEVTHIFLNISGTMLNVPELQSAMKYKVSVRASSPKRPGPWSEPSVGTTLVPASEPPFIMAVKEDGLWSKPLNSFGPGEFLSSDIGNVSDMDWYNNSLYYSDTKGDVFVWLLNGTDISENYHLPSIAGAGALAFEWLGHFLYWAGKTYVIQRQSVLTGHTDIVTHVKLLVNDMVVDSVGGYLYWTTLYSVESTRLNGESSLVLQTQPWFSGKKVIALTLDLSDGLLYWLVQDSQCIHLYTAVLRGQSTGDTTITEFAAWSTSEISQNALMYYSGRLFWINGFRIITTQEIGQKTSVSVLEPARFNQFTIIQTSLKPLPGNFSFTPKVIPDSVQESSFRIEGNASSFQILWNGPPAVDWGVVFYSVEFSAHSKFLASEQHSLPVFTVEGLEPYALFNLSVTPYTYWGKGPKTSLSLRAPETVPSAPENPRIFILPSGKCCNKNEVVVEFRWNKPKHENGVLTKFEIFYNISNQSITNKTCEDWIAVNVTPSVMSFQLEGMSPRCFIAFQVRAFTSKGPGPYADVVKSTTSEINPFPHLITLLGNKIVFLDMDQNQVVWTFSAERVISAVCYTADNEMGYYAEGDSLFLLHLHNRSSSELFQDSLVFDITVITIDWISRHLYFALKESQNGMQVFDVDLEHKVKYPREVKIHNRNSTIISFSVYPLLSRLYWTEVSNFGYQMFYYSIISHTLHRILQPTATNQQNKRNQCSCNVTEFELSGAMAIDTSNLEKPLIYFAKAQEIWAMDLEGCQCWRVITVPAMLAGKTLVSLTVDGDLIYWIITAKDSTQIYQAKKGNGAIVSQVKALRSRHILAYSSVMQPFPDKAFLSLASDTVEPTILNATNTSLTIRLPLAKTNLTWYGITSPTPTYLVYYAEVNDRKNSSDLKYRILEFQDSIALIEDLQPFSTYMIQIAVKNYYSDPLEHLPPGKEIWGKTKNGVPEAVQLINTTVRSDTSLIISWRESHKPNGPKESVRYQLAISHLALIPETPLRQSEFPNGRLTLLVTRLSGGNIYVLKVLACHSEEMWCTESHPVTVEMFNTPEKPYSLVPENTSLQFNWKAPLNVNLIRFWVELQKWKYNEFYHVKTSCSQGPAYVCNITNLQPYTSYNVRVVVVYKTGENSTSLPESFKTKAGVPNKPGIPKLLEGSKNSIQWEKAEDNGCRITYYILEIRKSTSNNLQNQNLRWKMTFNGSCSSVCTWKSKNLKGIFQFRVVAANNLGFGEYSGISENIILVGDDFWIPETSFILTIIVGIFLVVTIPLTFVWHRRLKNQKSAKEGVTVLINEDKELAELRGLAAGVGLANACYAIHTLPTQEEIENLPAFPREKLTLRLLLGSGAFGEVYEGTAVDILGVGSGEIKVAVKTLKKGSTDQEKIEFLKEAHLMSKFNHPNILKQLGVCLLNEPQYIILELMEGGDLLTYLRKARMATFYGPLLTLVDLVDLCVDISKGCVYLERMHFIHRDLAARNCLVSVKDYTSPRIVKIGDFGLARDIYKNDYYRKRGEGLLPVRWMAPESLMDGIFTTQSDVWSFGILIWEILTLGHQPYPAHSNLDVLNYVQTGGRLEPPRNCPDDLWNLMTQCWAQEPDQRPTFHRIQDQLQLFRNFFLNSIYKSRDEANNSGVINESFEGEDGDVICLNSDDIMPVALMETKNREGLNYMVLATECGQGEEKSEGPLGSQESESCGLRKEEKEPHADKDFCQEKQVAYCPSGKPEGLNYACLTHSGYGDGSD
Experiment [14] addresses Ribosomal protein S6 kinase alpha-3 (Homo sapiens) (UniProt P51812). Description: Inhibition of human RSK2 at 500 nM by HotSpot assay relative to control.
Experiment [15] has as its target Serine/threonine-protein kinase 25 (Homo sapiens) (UniProt O00506). As to the kind of experiment: Inhibition of human YSK1 at 500 nM by HotSpot assay relative to control.
Experiment [16] concerns the target Tyrosine-protein kinase SYK (Homo sapiens) (UniProt P43405). As to the kind of experiment: Inhibition of human SYK at 500 nM by HotSpot assay relative to control.
Experiment [17] deals with BDNF/NT-3 growth factors receptor (Homo sapiens) (UniProt Q16620). As to the kind of experiment: Inhibition of human TRKB at 500 nM by HotSpot assay relative to control.

Chain of Mitogen-activated protein kinase 9 (Homo sapiens) (P45984 whole entry, looked up): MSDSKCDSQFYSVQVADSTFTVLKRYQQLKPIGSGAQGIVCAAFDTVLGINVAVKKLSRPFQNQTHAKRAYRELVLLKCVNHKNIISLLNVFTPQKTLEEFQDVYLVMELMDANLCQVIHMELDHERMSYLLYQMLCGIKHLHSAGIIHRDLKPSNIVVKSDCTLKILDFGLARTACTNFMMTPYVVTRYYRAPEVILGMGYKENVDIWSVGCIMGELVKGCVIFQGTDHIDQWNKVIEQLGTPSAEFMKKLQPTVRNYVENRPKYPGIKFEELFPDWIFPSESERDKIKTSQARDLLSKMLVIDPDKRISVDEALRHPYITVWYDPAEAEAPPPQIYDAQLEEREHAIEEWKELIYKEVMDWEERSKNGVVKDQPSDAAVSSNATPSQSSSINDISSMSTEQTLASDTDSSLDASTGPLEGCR
Chain of Tyrosine-protein kinase BTK (Homo sapiens) (Q06187 whole entry): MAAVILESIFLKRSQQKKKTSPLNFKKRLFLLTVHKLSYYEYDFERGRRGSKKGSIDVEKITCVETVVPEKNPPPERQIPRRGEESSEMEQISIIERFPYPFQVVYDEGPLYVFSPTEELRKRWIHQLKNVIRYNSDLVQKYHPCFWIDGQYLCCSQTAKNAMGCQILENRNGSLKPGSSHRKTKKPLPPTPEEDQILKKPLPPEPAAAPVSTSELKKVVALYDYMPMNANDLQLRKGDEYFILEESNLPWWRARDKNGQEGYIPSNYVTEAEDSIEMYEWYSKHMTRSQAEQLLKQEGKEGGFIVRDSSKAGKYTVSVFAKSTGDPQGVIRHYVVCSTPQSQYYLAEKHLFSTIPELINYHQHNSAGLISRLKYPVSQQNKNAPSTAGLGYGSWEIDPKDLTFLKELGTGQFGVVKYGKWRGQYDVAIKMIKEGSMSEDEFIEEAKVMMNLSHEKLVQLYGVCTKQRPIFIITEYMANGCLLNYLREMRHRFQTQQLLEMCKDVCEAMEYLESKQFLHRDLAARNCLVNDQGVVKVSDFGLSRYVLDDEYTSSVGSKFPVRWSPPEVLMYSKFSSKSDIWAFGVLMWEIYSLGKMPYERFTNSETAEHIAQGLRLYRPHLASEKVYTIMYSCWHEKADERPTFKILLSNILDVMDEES
Chain of Ribosomal protein S6 kinase alpha-3 (Homo sapiens) (P51812 whole entry): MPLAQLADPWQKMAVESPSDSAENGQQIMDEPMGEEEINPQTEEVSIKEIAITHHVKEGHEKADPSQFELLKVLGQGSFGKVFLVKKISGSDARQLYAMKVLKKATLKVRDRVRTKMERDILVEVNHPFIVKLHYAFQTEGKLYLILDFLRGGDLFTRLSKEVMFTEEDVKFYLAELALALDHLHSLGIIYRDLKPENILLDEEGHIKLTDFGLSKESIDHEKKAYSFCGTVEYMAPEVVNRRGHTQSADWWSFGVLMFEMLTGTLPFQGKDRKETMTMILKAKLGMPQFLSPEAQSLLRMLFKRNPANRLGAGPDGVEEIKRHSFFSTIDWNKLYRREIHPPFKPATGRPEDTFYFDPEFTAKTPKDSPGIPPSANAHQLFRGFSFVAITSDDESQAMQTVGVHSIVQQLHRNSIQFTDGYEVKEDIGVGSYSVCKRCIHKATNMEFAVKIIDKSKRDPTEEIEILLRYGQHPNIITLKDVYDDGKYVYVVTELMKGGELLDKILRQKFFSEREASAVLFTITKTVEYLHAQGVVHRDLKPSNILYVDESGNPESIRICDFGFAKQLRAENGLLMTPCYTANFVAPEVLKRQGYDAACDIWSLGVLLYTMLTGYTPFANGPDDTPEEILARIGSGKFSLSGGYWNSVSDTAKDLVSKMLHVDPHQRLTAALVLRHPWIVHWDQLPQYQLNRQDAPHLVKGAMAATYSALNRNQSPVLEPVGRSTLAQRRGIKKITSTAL

Consider `Nc1n[nH]c2nnc(-c3c(-c4ccccc4)nn4ccccc34)cc12`, for which the inhibition in [1] is 16.7%; in experiment [2], 1.98%; in experiment [3] it was -0.77%; in [4] it was 6.42%; in [5], 3.52%; in experiment [6], -5.42%. The inhibition in experiment [7] is 1.96%; in [8] it was 51.6%; in experiment [9], -3.19%; in experiment [10], 9.06%; in experiment [11], 12.8%; in experiment [12] it was 4.57%. The inhibition in experiment [13] was determined as 19.8%; in experiment [14] it was 1.29%; in experiment [15], 15.8%; in [16] it was 2.6%; in experiment [17], 10.3%.

As to `Oc1n[nH]c2nnc(-c3c(-c4ccccc4)nn4ccccc34)cc12`, the inhibition in [1] is 0.36%; in [2], 2.37%; in experiment [3], 0.5%; in experiment [4] it was 9.23%; in experiment [5], 2.55%; in experiment [6], -3.11%. For the same compound, the inhibition in experiment [7] worked out at 16.7%; in [8], 11.7%; in [9], 5.98%; in experiment [10], 8.78%; in [11] it was 14.1%; in [12] it was 2.81%. In addition, the inhibition in [13] is 2.73%; in experiment [14] it was -2.36%; in [15], 4.81%; in [16] it was 0.47%; in [17], 2.59%.
